We go through 15 molecules from patent US20240109885A1, “2,3-DIHYDRO-1H-PYRROLO[3,2-B]PYRIDINE DERIVATIVE, PREPARATION METHOD THEREFOR, AND APPLICATION THEREOF” (Abbisko Therapeutics Co., Ltd, priority 2020, published 2024).

Holding throughout (type): cell-based
For one test, the system named is A431 (EGFR-WT). The test can be described thus: Cell proliferation assay (CellTiter-Glo), A431 cells. The conditions noted are these: Homo sapiens, A-431, 72 hrs, CTG assay, * = average of multiple measurements. As for the experimental part:
(§1) I. Cell proliferation assay (i) Reagents and consumables • Fetal bovine serum (FBS) (GBICO, Cat #10099-141); • CellTiter-Glo® Luminescent Cell Viability Assay Kit (Promega, Cat #G7572); • Black transparent flat-bottomed 96-well plate (Corning®, Cat #3603).
(§2) • SpectraMax Multi-Label Microplate Detector MD, 2104-0010A; • CO2 incubator, Thermo Scientific 3100 Series; • Biosafety cabinet, Thermo Scientific, 1300 Series type A2; • Inverted microscope, Olympus, CKX41SF; • Siemens refrigerator KK25E76TI. (iii) Cell lines and culture conditions
(§3) (iv) Experimental procedures 1. Cell culture and seeding: • (1) Cells in the logarithmic growth phase were harvested, and counted using a platelet counter. Cell viability was detected by the trypan blue exclusion assay to ensure that the cell viability was above 90%. • (2) The cell concentration was adjusted to achieve the final density; and 90 μL of the cell suspension was added to the 96-well plate. • (3) The cells were incubated in the 96-well plate overnight at 37° C. in the presence of 5% CO2 with 95% humidity. 2. TO benchmark data: • (1) 10 μL of PBS was added to each well of the TO flat plate containing the cells. • (2) The CTG reagent was thawed, and the cell plate was equilibrated to room temperature for 30 min. • (3) An equal volume of CTG solution was added to each well. • (4) The cells were shaken for 5 min on an orbital shaker for lysis. • (5) The cell plate was left at room temperature for 20 min to stabilize luminescent signals. • (6) The values of TO luminescent signals were read. 3. Compound dilution and addition • (1) According to the compound information table, a corresponding volume of DMSO was added to the corresponding compound powder to prepare a 10 mM stock solution. • (2) Compound solutions diluted at 1000 fold and 3.16 fold were prepared. • (3) The compound solution diluted at 1000 fold was diluted at 100 fold with PBS, to prepare the compound solutions at 10 fold in 9 concentrations, with the maximum concentration of […]; and the compound solution was diluted at 3.16 fold. 10 μL of medicament solution was added to each well of the seeded 96-well plate. Three replicate wells were provided for each concentration of the compound, and the final concentration of DMSO was 0.1%. • (4) Cells were placed in the 96-well plate containing the medicament and subsequently cultured for 72 hrs at 37° C. in the presence of 5% CO2 with 95% humidity, and then, CTG assay was conducted. 4. Reading of luminescent signals • (1) The CTG reagent was thawed, and the cell plate was equilibrated to room temperature for 30 min. • (2) An equal volume of CTG solution was added to each well. • (3) The cells were shaken for 5 min on an orbital shaker for lysis.
(§4) (4) The cell plate was left at room temperature for 20 min to stabilize the luminescent signals. • (5) Luminescent values were read. Data processing
(§5) The data were analyzed using software GraphPad Prism 7.0, and fitted by the nonlinear S-curve regression to obtain a dose-effect curve, based on which the IC50 value (unit: nM) was calculated, with the specific test results shown in Table 1.
(§6) Cell viability (%)=(Lum test medicament-Lum culture medium control)/(Lum cell control-Lum culture medium control)×100%.
For orientation: In ATP-based viability assays light output follows the ATP content of the culture.

Test [1] addresses Ba/F3 EGFR-V769_D770insASV (Homo sapiens, UniProt P00533, DUP767-769, cells depend on it). Nature of the test: Cell proliferation assay (CellTiter-Glo), Ba/F3 EGFR-V769_D770insASV cells. To be noted: 72 hrs, CTG assay, * = average of multiple measurements, read-out: Ba/F3 EGFR-V769_D770insASV (nM), IC50 of cell proliferation. As for the experimental part: as §1, §2, §3, §4, §5, §6

The target in test [2] is Ba/F3 EGFR-D770-N771ins_SVD (Homo sapiens, UniProt P00533, DUP768-770, cells depend on it). Nature of the test: Cell proliferation assay (CellTiter-Glo), Ba/F3 EGFR-D770-N771ins_SVD cells. The conditions noted are these: 72 hrs, CTG assay, * = average of multiple measurements, read-out: Ba/F3 EGFR-D770-N771ins_SVD (nM), IC50 of cell proliferation. As for the experimental part:
as §1, §2, §3, §4, §5, §6

Ba/F3 EGFR-D770-N771ins_SVD, sequence (P00533 with tags, fused parts or gaps DUP768-770): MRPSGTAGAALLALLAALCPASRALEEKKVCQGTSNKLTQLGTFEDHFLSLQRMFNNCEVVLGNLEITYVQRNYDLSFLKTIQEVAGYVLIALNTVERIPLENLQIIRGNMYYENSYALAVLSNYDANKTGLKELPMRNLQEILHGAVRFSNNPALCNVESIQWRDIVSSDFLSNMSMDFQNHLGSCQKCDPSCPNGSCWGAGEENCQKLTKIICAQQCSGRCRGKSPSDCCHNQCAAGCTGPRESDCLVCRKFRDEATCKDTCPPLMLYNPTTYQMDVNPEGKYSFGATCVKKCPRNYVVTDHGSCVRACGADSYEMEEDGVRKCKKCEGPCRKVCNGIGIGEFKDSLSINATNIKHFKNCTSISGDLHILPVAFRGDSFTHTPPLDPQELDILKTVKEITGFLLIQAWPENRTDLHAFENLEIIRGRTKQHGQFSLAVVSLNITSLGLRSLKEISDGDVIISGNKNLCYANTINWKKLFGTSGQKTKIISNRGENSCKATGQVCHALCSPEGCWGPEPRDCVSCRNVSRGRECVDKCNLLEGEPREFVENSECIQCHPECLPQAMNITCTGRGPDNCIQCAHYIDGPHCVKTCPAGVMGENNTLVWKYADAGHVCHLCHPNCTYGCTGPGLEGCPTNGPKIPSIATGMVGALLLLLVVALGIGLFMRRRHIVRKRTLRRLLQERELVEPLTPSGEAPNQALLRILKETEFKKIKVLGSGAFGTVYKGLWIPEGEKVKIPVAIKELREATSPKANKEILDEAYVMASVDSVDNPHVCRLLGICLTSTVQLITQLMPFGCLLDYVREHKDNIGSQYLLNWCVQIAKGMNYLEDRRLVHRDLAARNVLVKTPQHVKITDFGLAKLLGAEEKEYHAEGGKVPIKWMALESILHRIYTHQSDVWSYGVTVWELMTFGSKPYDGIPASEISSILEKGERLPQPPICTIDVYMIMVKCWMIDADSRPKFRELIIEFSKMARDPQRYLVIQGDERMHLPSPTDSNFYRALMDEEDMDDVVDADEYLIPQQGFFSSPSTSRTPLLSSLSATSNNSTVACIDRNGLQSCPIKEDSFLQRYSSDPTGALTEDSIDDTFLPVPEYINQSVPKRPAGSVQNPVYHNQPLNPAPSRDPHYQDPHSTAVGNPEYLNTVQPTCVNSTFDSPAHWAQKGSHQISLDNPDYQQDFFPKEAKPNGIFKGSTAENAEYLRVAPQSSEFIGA
Ba/F3 EGFR-V769_D770insASV, sequence (P00533 with tags, fused parts or gaps DUP767-769): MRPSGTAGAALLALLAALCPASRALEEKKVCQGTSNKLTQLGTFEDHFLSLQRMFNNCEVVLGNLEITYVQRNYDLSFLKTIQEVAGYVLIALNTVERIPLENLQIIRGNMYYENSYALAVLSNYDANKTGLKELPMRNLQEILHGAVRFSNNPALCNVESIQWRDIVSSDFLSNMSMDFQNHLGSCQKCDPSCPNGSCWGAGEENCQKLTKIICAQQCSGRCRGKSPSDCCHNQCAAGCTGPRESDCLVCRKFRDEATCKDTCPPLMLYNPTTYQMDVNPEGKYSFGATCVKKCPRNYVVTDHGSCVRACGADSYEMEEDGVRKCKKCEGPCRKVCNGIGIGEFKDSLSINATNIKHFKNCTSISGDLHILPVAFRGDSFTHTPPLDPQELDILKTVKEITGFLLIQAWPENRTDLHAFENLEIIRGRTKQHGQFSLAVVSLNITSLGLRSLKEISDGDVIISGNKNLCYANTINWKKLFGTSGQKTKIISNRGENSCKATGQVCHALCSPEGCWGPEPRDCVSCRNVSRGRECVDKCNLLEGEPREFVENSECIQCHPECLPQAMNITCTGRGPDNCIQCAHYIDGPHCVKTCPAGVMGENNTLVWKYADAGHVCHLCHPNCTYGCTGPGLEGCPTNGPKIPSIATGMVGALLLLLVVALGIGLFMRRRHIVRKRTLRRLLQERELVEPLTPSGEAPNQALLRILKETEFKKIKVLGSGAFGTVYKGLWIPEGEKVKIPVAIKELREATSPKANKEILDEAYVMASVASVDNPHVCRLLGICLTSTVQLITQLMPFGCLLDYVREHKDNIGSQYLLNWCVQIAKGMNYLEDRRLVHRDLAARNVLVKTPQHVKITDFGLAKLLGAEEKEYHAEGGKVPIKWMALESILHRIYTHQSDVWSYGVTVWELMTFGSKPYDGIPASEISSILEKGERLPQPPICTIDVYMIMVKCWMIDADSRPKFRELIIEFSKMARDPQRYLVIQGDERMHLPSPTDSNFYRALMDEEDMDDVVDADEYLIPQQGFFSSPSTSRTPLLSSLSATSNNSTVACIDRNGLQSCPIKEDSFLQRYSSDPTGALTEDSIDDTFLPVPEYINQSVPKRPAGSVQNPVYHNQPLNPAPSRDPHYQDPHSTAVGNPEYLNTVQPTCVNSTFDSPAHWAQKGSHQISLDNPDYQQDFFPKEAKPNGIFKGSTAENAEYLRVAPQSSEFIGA

For the molecule `C=CC(=O)Nc1cc(Nc2ncnc(N3CC(C)(C)c4ncc(C)cc43)n2)c(OC)cc1N(C)CCN(C)C` [Example 16, N-(2-((2-(dimethylamino)ethyl) (methyl)amino)-4-methoxy-5-((4-(3,3,6-trimethyl-2,3-dihydro-1H-pyrrolo[3,2-b]pyridin-1-yl)-1,3,5-triazin-2-yl)amino)phenyl)acrylamide], the IC50 (as a rule, the point on the concentration scale where inhibition reaches its midpoint) in the test with A431 (EGFR-WT) turned out to be 47.7 nM. Besides, the GI50 in test [1] turned out to be 27.7 nM; in test [2] it was 9.5 nM.

As for `C=CC(=O)Nc1cc(Nc2nccc(N3CC(C)(C)c4nc(C5CC5)ccc43)n2)c(OC)cc1N(C)CCN(C)C` [Example 17, N-(5-((4-(5-cyclopropyl-3,3-dimethyl-2,3-dihydro-1H-pyrrolo[3,2-b]pyridin-1-yl)pyrimidin-2-yl)amino)-2-((2-(dimethylamino)ethyl) (methyl)amino)-4-methoxyphenyl) acrylamide], in the test on A431 (EGFR-WT), the IC50 was 125 nM. For the same molecule, the GI50 was determined as 54.6 nM in test [1] and 33.9 nM in test [2].

Take `C=CC(=O)Nc1cc(Nc2ncnc(N3CC(C)(C)c4nc(C)c(C)cc43)n2)c(OC)cc1N(C)CCN(C)C` [Example 20, N-(2-((2-(dimethylamino)ethyl) (methyl)amino)-4-methoxy-5-((4-(3,3,5,6-tetramethyl-2,3-dihydro-1H-pyrrolo[3,2-b]pyridin-1-yl)-1,3,5-triazin-2-yl)amino)phenyl)acrylamide]: in the test on A431 (EGFR-WT), the half-inhibitory concentration (IC50) amounted to 15.2 nM. Besides, the GI50 came to 14 nM in test [1] and 2.9 nM in test [2].

In the case of `C=CC(=O)Nc1cc(Nc2nccc(N3CC(C)(C)c4nc(C)c(C)cc43)n2)c(OC)cc1N(C)CCN(C)C` [Example 21, N-(2-((2-(dimethylamino)ethyl) (methyl)amino)-4-methoxy-5-((4-(3,3,5,6-tetramethyl-2,3-dihydro-1H-pyrrolo[3,2-b]pyridin-1-yl)pyrimidin-2-yl)amino)phenyl)acrylamide], in the test with A431 (EGFR-WT), the IC50 is 80.4 nM. Also, the GI50 came to 19 nM in test [1] and 3.8 nM in test [2].

As to `C=CC(=O)Nc1cc(Nc2ncnc(N3CC(C)(C)c4nc(Cl)ccc43)n2)c(OC)cc1N(C)CCN(C)C` [Example 22, N-(5-((4-(5-chloro-3,3-dimethyl-2,3-dihydro-1H-pyrrolo[3,2-b]pyridin-1-yl)-1,3,5-triazin-2-yl)amino)-2-((2-(dimethylamino)ethyl) (methyl)amino)-4-methoxyphenyl) acrylamide], the IC50 in the test with A431 (EGFR-WT) was 121 nM. Moreover, the GI50 turned out to be 58.2 nM in test [1] and 15.6 nM in test [2].

The molecule `C=CC(=O)Nc1cc(Nc2nccc(N3CC(C)(C)c4nc(C)ccc43)n2)c(OCC)cc1N(C)CCN(C)C` [Example 24, N-(2-((2-(dimethylamino)ethyl) (methyl)amino)-4-ethoxy-5-((4-(3,3,5-trimethyl-2,3-dihydro-1H-pyrrolo[3,2-b]pyridin-1-yl)pyrimidin-2-yl)amino)phenyl)acrylamide] came in with an IC50 in the test with A431 (EGFR-WT) of 850 nM. The GI50 is 44.3 nM in test [1] and 25.4 nM in test [2].

For the molecule `C=CC(=O)Nc1cc(Nc2cc(N3CC(C)(C)c4nc(C)c(C)cc43)ncn2)c(OC)cc1N(C)CCN(C)C` [Example 28, N-(2-((2-(dimethylamino)ethyl) (methyl)amino)-4-methoxy-5-((6-(3,3,5,6-tetramethyl-2,3-dihydro-1H-pyrrolo[3,2-b]pyridin-1-yl)pyrimidin-4-yl)amino)phenyl)acrylamide], half-maximal inhibition in the test on A431 (EGFR-WT) (IC50) was put at 26.3 nM. Further, the GI50 in test [1] is 37.1 nM; in test [2], 28.9 nM.

Molecule `C=CC(=O)Nc1cc(Nc2ncnc(N3CC4(CCCC4)c4nc(C)ccc43)n2)c(OC)cc1N(C)CCN(C)C` [Example 29, N-(2-((2-(dimethylamino)ethyl) (methyl)amino)-4-methoxy-5-((4-(5′-methylspiro[cyclopentane-1,3′-pyrrolo[3,2-b]pyridin]-1′(2′H)-yl)-1,3,5-triazin-2-yl)amino)phenyl) acrylamide] displayed an IC50 in the test on A431 (EGFR-WT) of 22.1 nM. The GI50 in test [1] worked out at 45.5 nM; in test [2], 20 nM.

As to `C=CC(=O)Nc1cc(Nc2ncnc(N3CC(C)(C)c4nc(C)c(C)cc43)n2)c(OCC)cc1N(C)CCN(C)C` [Example 30, N-(2-((2-(dimethylamino)ethyl) (methyl)amino)-4-ethoxy-5-((4-(3,3,5,6-tetramethyl-2,3-dihydro-1H-pyrrolo[3,2-b]pyridin-1-yl)-1,3,5-triazin-2-yl)amino)phenyl)acrylamide], 42.2 nM corresponded to half-maximal inhibition with A431 (EGFR-WT) (IC50). In addition, the GI50 in test [1] is 65.3 nM; in test [2] it was 38.1 nM.

For `C=CC(=O)Nc1cc(Nc2ncnc(N3CC4(CCCCC4)c4nc(C)ccc43)n2)c(OC)cc1N(C)CCN(C)C` [Example 31, N-(2-((2-(dimethylamino)ethyl) (methyl)amino)-4-methoxy-5-((4-(5′-methylspiro[cyclohexane-1,3′-pyrrolo[3,2-b]pyridin]-1′(2′H)-yl)-1,3,5-triazin-2-yl)amino)phenyl)acrylamide], the IC50 in the test on A431 (EGFR-WT) was determined as 11.1 nM. For the same molecule, the values for the GI50 in test [1] and in test [2] were 33 nM and 13 nM, respectively.

`C=CC(=O)Nc1cc(Nc2nccc(N3CC4(CCCCC4)c4nc(C)ccc43)n2)c(OC)cc1N(C)CCN(C)C` [Example 32, N-(2-((2-(dimethylamino)ethyl) (methyl)amino)-4-methoxy-5-((4-(5′-methylspiro[cyclohexane-1,3′-pyrrolo[3,2-b]pyridin]-1′(2′H)-yl)pyrimidin-2-yl)amino)phenyl)acrylamide]: the 50% inhibitory concentration (IC50) with A431 (EGFR-WT) is 53.7 nM. The GI50 in test [1] stood at 95.8 nM; in test [2], 35.7 nM.

On to `C=CC(=O)Nc1cc(Nc2nccc(N3CC4(CCCC4)c4nc(C)ccc43)n2)c(OC)cc1N(C)CCN(C)C` [Example 33, N-(2-((2-(dimethylamino)ethyl) (methyl)amino)-4-methoxy-5-((4-(5′-methylspiro[cyclopentane-1,3′-pyrrolo[3,2-b]pyridin]-1′(2′H)-yl)pyrimidin-2-yl)amino)phenyl)acrylamide], for which it took 264 nM to reach half-maximal inhibition in the test with A431 (EGFR-WT) (IC50). The GI50 in test [1] amounted to 84.3 nM; in test [2], 35.5 nM.

For the molecule `C=CC(=O)Nc1cc(Nc2ncnc(N3CC(C)(C)c4nc(Cl)c(C)cc43)n2)c(OC)cc1N(C)CCN(C)C` [Example 34, N-(5-((4-(5-chloro-3,3,6-trimethyl-2,3-dihydro-1H-pyrrolo[3,2-b]pyridin-1-yl)-1,3,5-triazin-2-yl)amino)-2-((2-(dimethylamino)ethyl) (methyl)amino)-4-methoxyphenyl) acrylamide], the midpoint of inhibition in the test on A431 (EGFR-WT), the IC50, lay at 47.7 nM. Besides, the GI50 in test [1] worked out at 68.4 nM; in test [2], 22.5 nM.

On to `C=CC(=O)Nc1cc(Nc2nccc(N3CC4(CCCC4)c4nc(C)ccc43)n2)c(OC(F)F)cc1N(C)CCN(C)C` [Example 39, N-(4-(difluoromethoxy)-2-((2-(dimethylamino)ethyl)(methyl)amino)-5-((4-(5′-methylspiro[cyclo-pentane-1,3′-pyrrolo[3,2-b]pyridin]-1′(2′H)-yl)pyrimidin-2-yl)amino)phenyl)acrylamide], for which, in the test on A431 (EGFR-WT), the half-inhibitory concentration (IC50) stood at 396 nM. Also, the GI50 in test [1] amounted to 35.8 nM; in test [2] it was 24.9 nM.

In the test with A431 (EGFR-WT), `C=CC(=O)Nc1cc(Nc2nccc(N3CC4(CCCCC4)c4nc(C)ccc43)n2)c(OCC(F)(F)F)nc1N(C)CCN(C)C` [Example 42, N-(2-((2-(dimethylamino)ethyl) (methyl)amino)-5-((4-(5′-methyl-spiro[cyclohexane-1,3′-pyrrolo[3,2-b]pyridin]-1′(2′H)-yl)pyrimidin-2-yl)amino)-6-(2,2,2-trifluoroethoxy)pyridin-3-yl)acrylamide] yielded an IC50 of 488 nM. Also, the GI50 stood at 23.5 nM in test [1] and 11.6 nM in test [2].
